Measured values: the NIST ThermoML archive (doi:10.1021/je050366x)
Numbers after ± are expanded uncertainties.

Test: xn = mol fraction of the nth substance listed
Settings: for surface tension liquid-gas: Ring tensiometer; for mass density: 100 kPa, Liquid

O=C(O)C(=O)O [ethanedioic acid] + O
x1 = 0.00716
Settings | surface tension liquid-gas [mN/m]
280.2 K | 73.7 ± 1.2
280.5 K | 73.7 ± 1.2
281.1 K | 73.8 ± 1.2
281.2 K | 73.7 ± 1.2
283.9 K | 73.3 ± 1.2
284.5 K | 73.2 ± 1.2
285.1 K | 73.2 ± 1.2
285.7 K | 73 ± 1.2
288.2 K | 72.7 ± 1.2
288.7 K | 72.4 ± 1.2
289.7 K | 72.6 ± 1.2
290.1 K | 72.4 ± 1.2
292.2 K | 72 ± 1.2
293 K | 71.9 ± 1.2
293.7 K | 71.9 ± 1.2
294.3 K | 71.7 ± 1.2
296.2 K | 71.3 ± 1.2
297.5 K | 71.2 ± 1.2
298 K | 71.2 ± 1.2
298.5 K | 71.1 ± 1.2
301.2 K | 70.4 ± 1.2
302.1 K | 70.6 ± 1.2
302.8 K | 70.3 ± 1.2
304.7 K | 70 ± 1.2

298 K, Pycnometric method
Settings | mass density [kg/m3]
x1 = 0.002 | 996 ± 1
x1 = 0.003 | 1001 ± 1
x1 = 0.005 | 1008 ± 1
x1 = 0.007 | 1012 ± 1
x1 = 0.008 | 1016 ± 1
x1 = 0.01 | 1019 ± 1
x1 = 0.012 | 1026 ± 1
x1 = 0.013 | 1030 ± 1
x1 = 0.015 | 1034 ± 1

O=C(O)CC(O)C(=O)O (stereo not given) [hydroxybutanedioic acid] + O
Settings | mass density [kg/m3] | surface tension liquid-gas [mN/m]
279.3 K, x1 = 0.06 | – | 71
280.5 K, x1 = 0.06 | – | 70.8
281.3 K, x1 = 0.06 | – | 70.6
281.7 K, x1 = 0.06 | – | 70.6
283.6 K, x1 = 0.06 | – | 70.3
283.7 K, x1 = 0.06 | – | 70.1
284.6 K, x1 = 0.06 | – | 70.3
285 K, x1 = 0.06 | – | 70.2
288.3 K, x1 = 0.06 | – | 69.7
288.5 K, x1 = 0.06 | – | 69.5
289.2 K, x1 = 0.06 | – | 69.7
289.3 K, x1 = 0.06 | – | 69.5
292.7 K, x1 = 0.06 | – | 68.7
293.2 K, x1 = 0.06 | – | 68.7
293.4 K, x1 = 0.06 | – | 69.1
293.7 K, x1 = 0.06 | – | 68
297.1 K, x1 = 0.06 | – | 68.2
297.2 K, x1 = 0.06 | – | 67.9
297.6 K, x1 = 0.06 | – | 68.4
297.7 K, x1 = 0.06 | – | 68
298 K, x1 = 0.003 | 1006 ± 2 | 70.3 ± 1.2
298 K, x1 = 0.007 | – | 70.1 ± 1.2
298 K, x1 = 0.015 | 1037 ± 2 | 69.8 ± 1.1
298 K, x1 = 0.023 | 1051 ± 2 | 69.3 ± 1.1
298 K, x1 = 0.032 | 1079 ± 2 | 69.3 ± 1.1
298 K, x1 = 0.043 | – | 68.4 ± 1.1
298 K, x1 = 0.054 | 1115 ± 2 | 68.4 ± 1.1
298 K, x1 = 0.058 | – | 68.1 ± 1.1
298 K, x1 = 0.07 | – | 67.8 ± 1.1
298 K, x1 = 0.075 | 1146 ± 2 | –
298 K, x1 = 0.082 | – | 67.3 ± 1.1
298 K, x1 = 0.087 | – | 66.8 ± 1.1
298 K, x1 = 0.096 | 1182 ± 2 | –
298.2 K, x1 = 0.06 | – | 67.8
301.9 K, x1 = 0.06 | – | 67.5
302.1 K, x1 = 0.06 | – | 68.1
302.3 K, x1 = 0.06 | – | 67.9

O=C(O)CC(=O)O [propanedioic acid] + O
Settings | surface tension liquid-gas [mN/m]
278.1 K, x1 = 0.06 | 66.5 ± 1.1
279.3 K, x1 = 0.06 | 66 ± 1.1
279.7 K, x1 = 0.06 | 65.9 ± 1.1
282.6 K, x1 = 0.06 | 66 ± 1.1
285 K, x1 = 0.06 | 65.7 ± 1.1
286.5 K, x1 = 0.06 | 65.6 ± 1.1
287.8 K, x1 = 0.06 | 65.4 ± 1.1
288.7 K, x1 = 0.06 | 65.2 ± 1.1
289.6 K, x1 = 0.06 | 65.3 ± 1.1
290.9 K, x1 = 0.06 | 64.6 ± 1.1
291.1 K, x1 = 0.06 | 65 ± 1.1
293 K, x1 = 0.06 | 64.6 ± 1.1
295.3 K, x1 = 0.06 | 64.7 ± 1.1
296.7 K, x1 = 0.06 | 64.1 ± 1.1
297.1 K, x1 = 0.06 | 64.1 ± 1.1
298 K, x1 = 0.01 | 69.2 ± 1.1
298 K, x1 = 0.017 | 68.5 ± 1.1
298 K, x1 = 0.025 | 66.7 ± 1.1
298 K, x1 = 0.033 | 66.7 ± 1.1
298 K, x1 = 0.04 | 65.6 ± 1.1
298 K, x1 = 0.05 | 65.6 ± 1.1
298 K, x1 = 0.055 | 65.5 ± 1.1
298 K, x1 = 0.065 | 65 ± 1.1
298 K, x1 = 0.07 | 64.2 ± 1.1
298 K, x1 = 0.08 | 63.5 ± 1.1
298 K, x1 = 0.088 | 64.2 ± 1.1
298 K, x1 = 0.094 | 63.5 ± 1.1
298 K, x1 = 0.107 | 62.7 ± 1
298 K, x1 = 0.122 | 62.3 ± 1
298 K, x1 = 0.137 | 62.2 ± 1
298 K, x1 = 0.149 | 62.6 ± 1
298 K, x1 = 0.158 | 62.2 ± 1
298.2 K, x1 = 0.06 | 63.8 ± 1.1
299 K, x1 = 0.06 | 63.6 ± 1.1
299.1 K, x1 = 0.06 | 63.9 ± 1.1
301.2 K, x1 = 0.06 | 64 ± 1.1
303.3 K, x1 = 0.06 | 63 ± 1.1

298 K, Pycnometric method
Settings | mass density [kg/m3]
x1 = 0.009 | 1016 ± 1
x1 = 0.03 | 1054 ± 1
x1 = 0.041 | 1068 ± 1
x1 = 0.055 | 1090 ± 1
x1 = 0.069 | 1108 ± 1
x1 = 0.085 | 1129 ± 1
x1 = 0.102 | 1152 ± 1
x1 = 0.147 | 1196 ± 1
